From patent US5194379A, “Microbial transformation process for the preparation of hydroxylanol imidazo (4,5-b) pyridines useful as angiotensin II receptor antagonists” (Merck & Co., Inc., priority 1991, dated 1993)

Target: T1, Angiotensin II (A II) receptor (Oryctolagus cuniculus, UniProt P34976)
T1 sequence (P34976 1-359): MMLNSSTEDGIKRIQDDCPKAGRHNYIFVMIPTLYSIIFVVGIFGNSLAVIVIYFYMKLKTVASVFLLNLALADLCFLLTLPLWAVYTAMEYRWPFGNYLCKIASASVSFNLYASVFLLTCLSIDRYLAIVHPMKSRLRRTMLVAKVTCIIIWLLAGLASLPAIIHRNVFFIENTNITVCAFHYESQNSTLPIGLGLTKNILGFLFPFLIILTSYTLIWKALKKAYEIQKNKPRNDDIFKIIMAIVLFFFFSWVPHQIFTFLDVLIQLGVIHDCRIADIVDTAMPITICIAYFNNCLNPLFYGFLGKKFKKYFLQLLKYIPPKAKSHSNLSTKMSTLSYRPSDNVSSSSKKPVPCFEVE
Test: Receptor Binding Assay Using Rabbit Aortae Membrane Preparation (displacement of 125I-Sar1Ile8-angiotensin II)
Description: This assay is also referred to herein as the "IC50 " assay.
Receptor Binding Assay Using Rabbit Aortae Membrane Preparation
Three frozen rabbit aortae (obtained from Pel-Freeze Biologicals) were suspended in 5 mM Tris-0.25M Sucrose, pH 7.4 buffer (50 ml) homogenized, and then centifuged. The mixture was filtered through a cheesecloth and the supernatant was centrifuged for 30 minutes at 20,000 rpm at 4° C. The pellet thus obtained was resuspended in 30 ml of 50 mM Tris-5 mM MgCl2 buffer containing 0.2% Bovine Serum Albumin and 0.2 mg/ml Bacitration and the suspension was used for 100 assay tubes. Samples tested for screening were done in duplicate. To the membrane preparation (0.25 ml) there was added ^125 I-Sar^1 Ile^8 -angiotensin II [obtained from New England Nuclear] (10 ul; 20,000 cpm) with or without the test sample and the mixture was incubated at 37° C. for 90 minutes. The mixture was then diluted with ice-cold 50 mM Tris---0.9% NaCl, pH 7.4 (4 ml) and filtered through a glass fiber filter (GF/B Whatman 2.4" diameter). The filter was soaked in scintillation cocktail (10 ml) and counted for radioactivity using Packard 2260 Tricarb liquid scintillation counter. […]

Row | Compound | A II antagonist activity by the IC50 assay (in words)
1 | CCc1nc2c(C)cc(CO)nc2n1Cc1ccc(-c2ccccc2-c2nnn[nH]2)cc1 [compound (I)] | exhibit A II antagonist activity
2 | CCc1nc2c(CO)cc(C)nc2n1Cc1ccc(-c2ccccc2-c2nnn[nH]2)cc1 [compound (II)] | exhibit A II antagonist activity
